≈ marks a conversion by molar mass, not a printed value.
These molecules were tested against T1, MjGCTL (rMjGCTL) (Penaeus japonicus, UniProt A0A1L7MZX5) (assay: inhibition of bacterial agglutination by purified rMjGCTL). Conditions: V. parahaemolyticus named for Man/Gal/Glc; TBS with 10 mM CaCl2, pH 7, 25 °C; 1 h preincubation; Ca2+-dependent.
T1 construct: gene GCTL; secreted from Drosophila S2 cells (pMT/BiP/V5-His C), V5 and His tags kept, Ni-NTA purified; ~50 kDa, glycosylated; ORF 311 aa, 35 kDa predicted; LDLa domain plus CRD (QAP motif)
T1 sequence (A0A1L7MZX5 17-311): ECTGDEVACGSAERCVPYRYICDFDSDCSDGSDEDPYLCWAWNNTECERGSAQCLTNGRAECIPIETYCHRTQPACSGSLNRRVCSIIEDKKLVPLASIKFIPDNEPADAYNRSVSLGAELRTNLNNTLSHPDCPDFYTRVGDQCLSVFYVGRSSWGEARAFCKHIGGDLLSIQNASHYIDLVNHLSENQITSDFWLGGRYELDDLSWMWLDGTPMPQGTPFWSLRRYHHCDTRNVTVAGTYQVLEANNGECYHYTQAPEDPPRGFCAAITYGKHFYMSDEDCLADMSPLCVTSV
Format: biochemical
Text: inhibition of bacterial agglutination by purified rMjGCTL on MjGCTL (rMjGCTL)
Molecule `OC[C@H]1OC(O)[C@H](O)[C@@H](O)[C@@H]1O` (stereo partly drawn) [D-glucose] has a Minimum inhibitory concentration of 100 mM (≈ 18 mg/mL). `C[C@@H]1OC(O)[C@@H](O)[C@H](O)[C@@H]1O` (stereo partly drawn) [Fucose] gave a Minimum inhibitory concentration of 250 mM (≈ 41 mg/mL). `OC[C@H]1O[C@@H](O[C@H]2[C@H](O)[C@@H](O)C(O)O[C@@H]2CO)[C@H](O)[C@@H](O)[C@H]1O` (stereo partly drawn) [Lactose] gave a Minimum inhibitory concentration of 250 mM (≈ 85.6 mg/mL). Work on `OC[C@H]1O[C@H](O[C@H]2[C@H](O)[C@@H](O)C(O)O[C@@H]2CO)[C@H](O)[C@@H](O)[C@@H]1O` (stereo partly drawn) [Maltose] yielded a Minimum inhibitory concentration of 125 mM (≈ 42.8 mg/mL). For `CC(=O)N[C@H]1C(O)O[C@H](CO)[C@@H](O)[C@@H]1O` (stereo partly drawn) [N-Acetyl-D-glucosamine], the Minimum inhibitory concentration was 250 mM (≈ 55.3 mg/mL). Work on `OC1OC[C@@H](O)[C@H](O)[C@H]1O` (stereo partly drawn) [Xylose] yielded a Minimum inhibitory concentration of 62.5 mM (≈ 9.38 mg/mL).

From article PMC5379193, “Pathogen recognition of a novel C-type lectin from Marsupenaeus japonicus reveals the divergent sugar-binding specificity of QAP motif” (Scientific Reports, 2017)
